Entries after “also recorded” stand apart in the source; their conditions may differ. Each block holds one molecule with its values, some of them ahead of it.
Experiments:
[1] = test system: H358 cells; experiment: Cell-based rescreen of top virtual-screen hits, IC50 determination; settings: Homo sapiens, NCI-H358, 0.1 μM to 10 μM, 72 hours
Experimental: Cell viability assay: Cell Counting Kit-8 (CCK-8) was purchased from Dojindo Molecular Technologies (Rockville, Md., USA). Cells were seeded on a 96-well plate and allowed to adhere in complete medium for 24 hours. Test compounds were added to 100 μl of medium at the indicated concentrations for 72 hours. Ten μl of the CCK-8 reagent were added to each well and absorbance at 450 nm was measured using a Tecan Spark 10M multimode microplate reader.
A virtual screen of a library of 1440 FDA-approved drugs using binding pockets in the N-terminal domain of PXN (FIG. 9H) identified several putative hits. The top 40 hits were then rescreened employing a cell-based assay to determine their efficacy using H358 cells.

[2] = test system: ITGB4 and PXN expression, γH2AX in H358 cells; experiment: Immunoblot after sublethal dose; format: cell-based, human; settings: 72 hours
Experimental: West blotting: Cell lysates were prepared with 1×RIPA buffer (MilliporeSigma) and denatured in 1× reducing sample buffer at 95° C. for 5 minutes. Protein samples (15 μg) were run on 4-15% TGX gels (Bio-Rad, Hercules, Calif., USA) and transferred onto nitrocellulose membranes (Bio-Rad). Blots were blocked with 5% non-fat milk in TBS-T for 1 hour at room temperature and probed with primary antibody diluted in 2.5% BSA in TBS-T overnight at 4° C. After three washes with TBS-T, blots were incubated with HRP-conjugated secondary antibodies for 2 hours at room temperature. After three more washes, bands of interest were visualized via chemiluminescence using Western Bright ECL HRP substrate (Advansta, Menlo Park, Calif., USA) and imaged with the ChemiDoc MP imager (Bio-Rad).
Then a sublethal dose was used to determine the effect of these compounds on ITGB4 and PXN expression and caspase activity (FIG. 9I). […] These eleven compounds were further screened in the cisplatin-resistant cell line H2009. […] Further, carfilzomib was tested in another cisplatin-resistant cell line H1993.

[3] = test system: H2009 cells; experiment: Scratch wound healing assay; format: cell-based, human; settings: for cell migration / wound healing: sublethal dose (carfilzomib 50-200 nM)
Experimental: (§1) Scratch wound healing assay. Cells were seeded on a 96-well Image Lock (Essen BioScience, Ann Arbor, Mich., USA) plate to reach 90% confluence by the next day. After cell adherence, 96 uniform wounds were created simultaneously using the WoundMaker (Essen BioScience) tool. Cells were washed once with serum-free medium and replenished with complete medium. To monitor wound healing, the plate was placed in the IncuCyte S3 Live-Cell Analysis System (Essen BioScience) and images were acquired every hour. Data analysis was generated by the IncuCyte software using a set confluence mask to measure relative wound density over time.
(§2) To discern the effect of knocking down ITGB4 on cell migration, H1993 and H2009 cells were transfected with the control or ITGB4-specific siRNA in 6-well plates and 12 hours post transfection, the cells were trypsinized and reseeded at high density in a 96-well plate. […] While both cell lines transfected with the control siRNA achieved 100% confluency of the wound within 48 hours, H1993 and 2009 cells in which ITGB4 was knocked down reached ˜60% and ˜80% confluency, respectively; neither cell line reached 100% confluency even after 96 h (FIG. 3F). Next the rate of wound closure was estimated. The rate was determined by dividing initial wound width by the time taken to close the wound. […] Similarly, in the case of the H2009 cells, the wound width closure rate dropped from 22 μm/h to about 18 μm/h (FIG. 3G). […] Additionally, up regulation of expression of other integrin β forms in response to ITGB4 knockdown was checked and an increase in the expression of ITGB1, ITGB2, and ITGB3 at mRNA level was found (FIG. 3I). The effect of ITGB3 silencing in the ITGB4 knocked down cells was further tested but no significant difference in their proliferation was found (FIG. 3J).

[4] = test system: H2009 cells; experiment: IncuCyte cell proliferation and caspase-3/7 apoptosis assay; format: cell-based, human
Experimental: (§3) Cell proliferation and apoptosis assay. Cell proliferation assays were performed using cell lines stably transfected with NucLight Red Lentivirus (Essen Bioscience) to accurately visualize and count the nucleus of a single cell. Cells were seeded on a 96-well plate and allowed to adhere for 24 hours. Test compounds were added at indicated concentrations. Caspase-3/7 Green Apoptosis Reagent (Essen Bioscience) was also added as a green fluorescent indicator of caspase-3/7-mediated apoptotic activity. To monitor cell proliferation and apoptosis over time, the plate was placed in the IncuCyte S3 Live-Cell Analysis System (Essen BioScience) and images were acquired every 2 hours. Data analysis was generated by the IncuCyte software using a red fluorescence mask to accurately count each cell nucleus and a green fluorescence mask to measure apoptosis over time.
(§4) To determine whether the inhibition in cell proliferation associated with ITGB4 knockdown was due to enhanced apoptosis or reduced cell division (cytostatic), the Essen Bioscience Caspase-3/7 Green apoptosis assay in live cells was conducted. The NucView™[…], a DNA intercalating dye was used to enable quantification of apoptosis over time. The dye is impermeable and non-toxic to cells but once the cell membrane is permeabilized by caspase-3/7, the dye enters the cell and gets activated due to change in pH leading to the generation of green fluorescence that is then detected in real time and quantified using the IncuCyte System (FIG. 4B).
(§5) To address this, H1993 and H2009 cells were treated with cisplatin for 3 days and the changes were analyzed by immunoblotting. […] Next, H1993 and H2009 cells were transiently transfected with ITGB4 siRNA and 24 hours post-transfection they were treated with 10 μM cisplatin and cell proliferation and caspase activity were determined. […] However, in response to cisplatin in ITGB4 knockdown cells, the fold change dipped to <1, alluding to a cytotoxic effect (FIG. 4C). […] However, cell death was not due to caspase activation but appeared to be due to cell bursting which is seen in anoikis (FIGS. 3K and 3L).

[5] = test system: H1993 cells; experiment: as above; format: cell-based, human; settings: for inhibition of cell proliferation: siRNA knockdown
Experimental: as §3, §4
as §5, with “3L). […]” for “3L).”

[6] = test system: H1993 cells; experiment: Scratch wound healing assay; format: cell-based, human; settings: ITGB4 knockdown
Experimental: as §1, §2

- IC50 [1]: 9 nM
Molecule: CN(C)C/C=C/C(=O)Nc1cc2c(Nc3ccc(F)c(Cl)c3)ncnc2cc1O[C@H]1CCOC1 [Afatinib]

Molecule: C#Cc1cccc(Nc2ncnc3cc(OC)c(OCCCCCCC(=O)NO)cc23)c1 [CUDC-101]
- apoptosis, DNA damage (γH2AX) and ITGB4 expression [2]: induced apoptosis and caused DNA damage
- IC50 [1]: 501 nM
- cell migration / wound healing [3]: less effective than carfilzomib in inhibiting wound healing; also recorded: did not

- IC50 [1]: 1540 nM
Molecule: CCS(=O)(=O)N1CCN(c2ccc(Nc3ncc(C(N)=O)c(NC4CC4)n3)cc2)CC1 [Cerdulatinib]

- IC50 [1]: 60 nM
Molecule: COc1cc2ncnc(Nc3ccc(F)c(Cl)c3)c2cc1NC(=O)/C=C/CN1CCCCC1 [Dacomitinib]

- IC50 [1]: 1 nM
Molecule: Cc1nc(Nc2ncc(C(=O)Nc3c(C)cccc3Cl)s2)cc(N2CCN(CCO)CC2)n1 [Dasatinib]

Molecule: CC(C)C[C@H](NC(=O)CNC(=O)c1cc(Cl)ccc1Cl)B(O)O [Ixazomib]
- apoptosis, DNA damage (γH2AX) and ITGB4 expression [2]: induced apoptosis and caused DNA damage
- IC50 [1]: 303 nM
- cell migration / wound healing [3]: less effective than carfilzomib in inhibiting wound healing; also recorded: impeded cell migration

Molecule: Cc1cnc(-c2ccccc2C(C)C)nc1NCc1ccc(-n2ccnn2)cc1 [ML323]
- cell proliferation rates ([4]; 5 μM and 10 μM, 3 days): no significant change
- cell proliferation rates ([5]; 5 μM and 10 μM, 3 days): no significant change

- IC50 [1]: 358 nM
Molecule: C=CC(=O)Nc1cc(Nc2nccc(-c3cn(C)c4ccccc34)n2)c(OC)cc1N(C)CCN(C)C [Osimertinib]

- IC50 [1]: 171 nM
Molecule: C1=C/COCc2cc(ccc2OCCN2CCCC2)Nc2nccc(n2)-c2cccc(c2)COC/1 [Pacritinib]

- IC50 [1]: 60 nM
Molecule: C=CC(=O)N1CCC(Oc2cc3c(Nc4ccc(Cl)c(Cl)c4F)ncnc3cc2OC)CC1 [Poziotinib]

- IC50 [1]: 0.9 nM
Molecule: Cc1cc(Nc2cc(N3CCN(C)CC3)nc(Sc3ccc(NC(=O)C4CC4)cc3)n2)[nH]n1 [Tozasertib]

Molecule: ACAACACUCAGAAUCUAAAUUGGAC (SEQ ID NO: 13) (listed as RNA, chemistry not given here) [VDAC1 siRNA, siRNA against VDAC1]
- increase in apoptosis ([4]; VDAC1 knockdown, 120 hours): 2 fold
- decrease in cell proliferation ([4]; VDAC1 knockdown, by 72 hours): 50%

Molecule: GCUUCGCUGUCGGAUUUCATT (SEQ ID NO: 6) (chemistry not given here) [PXN siRNA, siRNA against PXN, Life Technologies Cat 4392421]
- inhibition of cell proliferation [5]: 15%

Molecule: GGAGCACAAAGCCAACUAACGARCA (SEQ ID NO: 11) (listed as RNA, chemistry not given here) [USP1 siRNA, siRNA against USP1, construct B, OriGene SR305052B]
- inhibition of cell proliferation ([4]; USP1 knockdown, by 72 hours of seeding): > 2 fold

Molecule: GUCAGUUCUGCGAGUAUGACAACTT (SEQ ID NO: 9) (chemistry not given here) [ITGB4 siRNA, siRNA against ITGB4, construct C, OriGene SR302473C]
- doubling time ([4]; ITGB4 knockdown, control approximately 25 hours): 40 h
- fold change in cell count ([5]; ITGB4 knockdown or 10 μM cisplatin alone, cytostatic): ~1 fold
- fold change in cell count ([5]; ITGB4 knockdown plus 10 μM cisplatin, cytotoxic): < 1 fold
- increase in caspase activity compared to control ([5]; ITGB4 knockdown, by 24 hours): 5- to 6 fold
- increase in caspase activity compared to control ([5]; ITGB4 knockdown, by 72 hours): 20 fold
- increase in cell count ([5]; ITGB4 knockdown, by 72 hours): 0.2 fold
- estimated doubling time ([5]; ITGB4 knockdown, control 72 hours): approximately 120 hours
- drop in the fold change of cell count ([5]; knockdown plus cisplatin, compared to scramble siRNA cells treated with cisplatin): 40%
- inhibition of cell proliferation [5]: 50%
- wound width closure rate ([3]; ITGB4 knockdown, control 22 μm/h): about 18 μm/h
- wound confluency ([3]; ITGB4 knockdown, control siRNA 100% within 48 hours): ~80%
- wound confluency ([6]; control siRNA 100% within 48 hours): ~60%
- wound closure rate ([6]; control ~25 μm/h): < 10 μm/h
